In patent US9051351B2, “Hepatocyte growth factor mimics as therapeutic agents” (Washington State University, priority 2011, dated 2015):
“Also recorded” adds a separate entry of the source. Each block holds one compound with its values, some of them ahead of it. Where a SMILES comes first, the peptide text is derived from it. [ ]: non-standard residue; d: D form. dNle = CCCC[C@@H](N)C(=O)O; Ahx = NCCCCCC(=O)O

Legend:
in vitro = conditions: male, rat, pH 7.38
MDCK cells [1] = test: Inhibition of HGF-dependent scattering in MDCK cells; type: cell-based, canine; conditions: HGF 20 ng/ml, 48 h
Method: (§1) MDCK cells were grown to 100% confluency on the coverslips in six-well plates and washed twice with PBS. The confluent coverslips were then aseptically transferred to new six well plates containing 900 μl serum free DMEM. Norleual, Hinge peptide, and/or HGF (20 ng/ml) were added to appropriate wells. Control wells received PBS vehicle. Plates were incubated at 37° C. with 5% CO2 for 48 hours. Media was removed and cells were fixed with methanol. Cells were stained with Diff-Quik Wright-Giemsa (Dade-Behring, Newark, Del.) and digital images were taken. Coverslips were removed with forceps and more digital images were captured. Pixel quantification of images was achieved using Image J and statistics were performed using Prism 5 and InStat v.3.05.
as §1, with “h.” for “hours.”, “Cells were stained with Diff-Quik Wright-Giemsa (Dade-Behring, Newark, Del.) and digital images were taken. Coverslips were removed with forceps and more digital images were captured.” left out, “v.3.05 (GraphPad; San Diego, Calif.).” for “v.3.05.”

human HGF = molecular target: T1, human HGF (Homo sapiens, UniProt P14210); test: HGF dimerization (PAGE, silver staining); type: biochemical; conditions: analog 10^−10 M, heparin, 30 minute incubation
T1 construct: purchased R&D Systems (Minneapolis, Minn.)
T1 sequence (P14210 32-728): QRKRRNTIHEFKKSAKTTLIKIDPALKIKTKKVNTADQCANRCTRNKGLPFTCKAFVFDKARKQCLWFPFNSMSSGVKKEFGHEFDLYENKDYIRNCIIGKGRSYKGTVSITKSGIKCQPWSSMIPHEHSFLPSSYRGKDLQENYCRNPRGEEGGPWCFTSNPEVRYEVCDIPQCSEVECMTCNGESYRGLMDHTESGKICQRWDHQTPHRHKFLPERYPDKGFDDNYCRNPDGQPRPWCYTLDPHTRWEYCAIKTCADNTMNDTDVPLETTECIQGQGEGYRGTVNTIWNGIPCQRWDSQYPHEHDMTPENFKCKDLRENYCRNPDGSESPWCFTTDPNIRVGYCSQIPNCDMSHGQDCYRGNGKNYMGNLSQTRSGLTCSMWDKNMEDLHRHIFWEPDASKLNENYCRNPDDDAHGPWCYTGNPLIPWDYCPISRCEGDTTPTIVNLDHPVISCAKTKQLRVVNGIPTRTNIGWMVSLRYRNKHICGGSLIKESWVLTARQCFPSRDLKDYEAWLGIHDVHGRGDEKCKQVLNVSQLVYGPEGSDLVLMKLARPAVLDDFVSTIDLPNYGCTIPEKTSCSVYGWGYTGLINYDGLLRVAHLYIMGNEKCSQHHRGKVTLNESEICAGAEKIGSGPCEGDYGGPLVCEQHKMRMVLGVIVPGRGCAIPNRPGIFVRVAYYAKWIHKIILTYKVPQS
Method: HGF dimerization was assessed using PAGE followed by silver staining (Kawas et al., 2011). Human HGF at a concentration of 0.08 ng/μl with or without 6-AH analogs was incubated with heparin at a final concentration of 5 μg/ml. Loading buffer was then added to each sample and the mixture separated by native PAGE using gradient Criterion XT precast gels (4-12% Bis-Tris; Biorad Laboratories, Hercules, Calif.). Next the gel was silver stained for the detection of the HGF monomers and dimers. Bands were quantitated from digital images using a UVP phosphoimager (Upland, Calif.).

MDCK cells [2] = test: HGF-dependent MDCK cell proliferation (MTT); type: cell-based, canine; conditions: analog 10^−10M, HGF 10 ng/ml, 4 days
Method: 5000 MDCK cells were seeded into the wells of a 96 well plates in 10% FBS DMEM. To induce cellular quiescence, the cells were serum deprived for 24 h prior to initiating the treatments. Following serum starvation, 10 ng/ml HGF alone and with various concentrations of 6-AH analogs or PBS vehicle were added to the media. The cells were allowed to grow under these conditions for 4 days with a daily addition of 6-AH analogs. On the fourth day, 1 mg/ml of […] (MTT, Sigma-Aldrich) prepared in PBS was added to the cells and incubated for 4 h. Dimethyl sulfoxide diluted in a 0.01M glycine buffer was added to solubilize the cell membranes and the absorbance of reduced MTT in the buffer was quantitated at 590 nm using a plate reader (Biotek Synergy 2, Winooski, Vt.). HGF-dependent proliferation was determined by subtracting the basal proliferation (in the absence of HGF) from total proliferation rates in groups containing HGF.

hippocampal neurons [3] = test: Dendritic spine counts (spinogenesis) in mRFP-β-actin transfected dissociated hippocampal neurons; type: cell-based, rat; conditions: HGF 10 ng/ml, Dihexa or Nle1-AngIV 10^−12 M
Method: Hippocampal neurons (2×10^5 cells per square cm) were cultured from P1 Sprague Dawley rats on plates coated with poly-L-lysine from Sigma (St. Louis, Mo.; molecular weight 300,000). […] Each experiment was repeated at least three times using independent culture preparations. […] Hippocampal neurons (2×10^5 cells per square centimeter) were cultured from P1-2 Sprague Dawley rats on plates coated with poly-L-lysine from Sigma (St. Louis, Mo.; molecular weight 300,000). Hippocampal neurons were maintained in Neurobasal A media from Invitrogen (Carlsbad, Calif.) supplemented with B27 from Invitrogen, 0.5 mM L-glutamine, and […] cytosine-D-arabinofuranoside from Sigma added at 2 days in vitro. Hippocampal neurons were then cultured a further 3-7 days, at which time they were either transfected or treated with various pharmacological reagents as described in the text or figure legends. Neurons were transfected with mRFP-β-actin on day in vitro 6 […] using LipofectAMINETM 2000 (Invitrogen) according to the manufacturer's protocol. […] On DIV7 the cells were treated with vehicle (H20) or peptides (as described in the text) added to media. […] Five 50 μm long segments of dendrite from at least 10 neurons per data point were analyzed for each data point reported. Each experiment was repeated at least three times using independent culture preparations. […] A target sequence for c-Met was designed using RNAi central design program (see the website located at […].edu/). The target sequence […] NO: 2) was inserted into pSUPER vector (Oligoengine, Seattle Wash.) which drives endogenous production of shRNA under the H1 promoter. The shRNA was transfected into cells using the lipofectamine method described above. Verification of receptor knockdown was done by creating a c-[…]-Myc tagged gene product using the Gateway cloning system (Invitrogen). The Met protein coding sequence was cloned from rat whole brain cDNA using primers obtained from Integrated DNA Technologies, Inc. The amplified product was gel purified and a band corresponding to 190 kDa band excised and cloned into a […] destination vector (Gateway). Hippocampal neurons (2×10^5 cells per square cm) were cultured from P1 Sprague Dawley rats on plates coated with poly-L-lysine from Sigma (St. Louis, Mo.; molecular weight […]).

c-Met receptor = test: c-Met phosphorylation in acute adult hippocampal slices; type: cell-based, rat; conditions: 30 minutes
Excerpt: Adult Sprague-Dawley rats (250 g+) obtained from Harlan Laboratories (Ca, USA) were anesthetized with isofluorane (Vet One™, MWI, Meridian, Id., USA) and decapitated. The brain was rapidly removed and placed into ice-chilled artificial cerebrospinal fluid (aCSF) for approximately 30 s. Both hemispheres were separated by a mid-saggital cut and both hippocampi removed. Slices were sectioned cross- and length-wise (400 μm) to ensure penetrability of the drug, using a Mcllwain tissue chopper (Brinkmann, Gomshall, UK) and transferred to a gassed (95% O2/5% CO2) incubation chamber containing aCSF for 90 minutes at room temperature. Slices were transferred to fresh tubes, aCSF was removed by careful suctioning and replaced with aCSF containing vehicle (aCSF+aCSF), 100 ng/ml with carrier free adult recombinant Hepatocyte Growth Factor (HGF) (R and D Systems, MN, USA) in aCSF, 10^−10 M Hinge (Harding lab), […], 10^−10 M Dihexa (Harding lab) in aCSF, 10^−12 M Dihexa in aCSF or 50 ng/ml HGF+10^−12 M Dihexa in aCSF for 30 minutes at 37° C. with gentle rocking. aCSF was removed and the slices were lysed using RIPA buffer (Upstate/Milipore, Billerica, Mass.) and inhibitor Cocktails I and II (Sigma, St. Louis, Mo.), sonicated on ice and clarified by centrifugation for 30 minutes, 13,000 rpm at 4° C. The supernatant was removed from the pellet and stored at −80° C. or processed immediately for gel electrophoresis.
Protein concentration of the samples was quantified using the BCA method (Pierce, Rockford, Ill.) following the manufacturers protocol. Samples were added to SDS-PAGE buffer and boiled for 10 min. before loading onto a 4-12% Bis-Tris pre-cast gel (Invitrogen, Carlsbad, Calif.) for electrophoresis. Proteins were transferred onto PVDF membranes (Bio Rad, Hercules, Calif.) and blocked with AquaBlock™ (New England Biolabs, Ipswich, Mass.) for 1 hour at room temperature (RT). Primary antibody incubation was done in AquaBlock™ with rabbit anti-Met and […] phospho-Met (Tyr1234/1235) (1:1000, Cell Signaling Technology, Danvers, Mass.) overnight at 4° C. Alternating washes were done with PBS and PBST. Secondary antibody (IRDye) (Rockland, Gilbertsville, Pa.) incubations were done in AquaBlock™ for one hour at RT. Blots were imaged using LI-COR Odyssey Infrared Imaging System (LI-COR Biosciences, Lincoln, Nebr.).

hippocampal neurons [4] = test: Immunocytochemistry: percent correlation of spines to synaptic markers; type: cell-based, rat; conditions: HGF 10 ng/ml, 5 days
Method: (§2) Transfected neurons were treated, fixed and stained. Briefly, cells were permeablized with 0.1% Triton X-100 detergent (Bio-Rad; Hercules, Calif.) for 10 minutes. An 8% bovine serum albumin (Intergen Company; Burlington, Mass.) in PBS was used to prevent non-specific binding for one hour at R.T.; Primary antibody incubations were at a 1:2500 dilution (see below) in 1% BSA in PBS at 4° C. overnight. Secondary antibody, 1:3000 Alexafluor 488 goat-anti-mouse (Invitrogen: Carlsbad, Calif.) was applied for two hours at room temperature. Coverslips were mounted with ProLong Gold anti-fade reagent (Invitrogen; Carlsbad, Calif.) and all washes were done with PBS. Imaging and analysis were performed as described above. For presynaptic excitatory transmission the VGLUT1 (Synaptic Systems, Goettingen, Germany) marker (Balschun, Moechars et al.) was employed and for general presynaptic transmission synapsin1 (Synaptic Systems, Goettingen, Germany) (Ferreira and Rapoport 2002) was applied. A postsynaptic function was established by PSD-95 (Milipore, Billerica, Mass.) (El-Husseini, Schnell et al. 2000). In each instance the total number of spines was counted for the treatment groups, control, Nle1-AngIV and Dihexa, to ensure an active phenotype. The total number of actin enriched spines adjacent to VGLUT1 or Synapsin were counted and converted to a percentage as the percent correlation of treatment-induced spines to presynaptic markers is a strong indicator of ability to transmit excitatory signals.
as §2, with “fixed and stained as previously described in Chapter two. Briefly, cells” for “fixed and stained. Briefly, cells”, “enriched spines (red) adjacent to” for “enriched spines adjacent to”
Transfected neurons were treated and fixed as described above. Following fixation, cells were rinsed in PBS and permeabilized with 0.1% Triton® X-100 detergent (Bin-Rad; Hercules, Calif.), followed by two rinses in PBS and blocked with 8% bovine serum albumin (Intergen Company; Burlington, Mass.) in PBS for 1 h. […]

microsomal CLint at 5 µM (in vitro; pooled liver microsomes): 137 µL/min/mg
Compound: CCOc1ccc2ccc(=O)oc2c1 [7-ethoxycoumarin, reference compound]

Compound: CCCC[C@@H](N)C(=O)N[C@@H](CCSC)C(=O)N[C@H](C(=O)NCCCCCC(N)=O)[C@@H](C)CC [D-Nle-Met-Ile-NH—(CH2)5—CONH2] (H-[dNle]MI[Ahx]-NH2)
inhibition of HGF-dependent MDCK cell scattering (MDCK cells [1]): The HGF and HGF+Met groups were not different | inhibition of HGF dimerization (human HGF): unable to block dimerization at the concentration tested

inhibition of HGF dimerization (human HGF): intermediate inhibition of dimerization
Compound: CCCC[C@@H](N)C(=O)N[C@@H](Cc1c[nH]c2ccccc12)C(=O)N[C@H](C(=O)NCCCCCC(N)=O)[C@@H](C)CC [D-Nle-Trp-Ile-NH—(CH2)5—CONH2] (H-[dNle]WI[Ahx]-NH2)
inhibition of HGF-dependent MDCK cell proliferation (MDCK cells [2]): showed inhibitory activity, albeit less than that observed with the most potent analogs | inhibition of HGF dimerization (human HGF; listed as Trp): statistically different than the HGF treated group

microsomal CLint at 5 µM (in vitro; microsomes): 60.2 µL/min/mg
Compound: CN1C(C(=O)Nc2ccccn2)=C(O)c2ccccc2S1(=O)=O [piroxicam, reference compound]

Compound: HGF: carrier free adult recombinant Hepatocyte Growth Factor (R and D Systems)
mean spine numbers per 50 μm dendrite length (hippocampal neurons [3]; neurons transfected with mRFP-β-actin alone, 48 hours): 20.6 spines per 50 μm dendrite leng | mean spine numbers per 50 μm dendrite length (hippocampal neurons [3]; neurons transfected with mRFP-β-actin and shMet (c-Met knock-down)): 12.4 spines per 50 μm dendrite leng | c-Met phosphorylation vs vehicle (aCSF) (c-Met receptor; saturating doses: HGF 100 ng/ml, Dihexa 10^−10 M): increased c-Met phosphorylation; also recorded: effectively augment c-Met phosphorylation | c-Met phosphorylation vs vehicle (aCSF) (c-Met receptor; sub-threshold doses: HGF 50 ng/ml, Dihexa 10^−12 M): not statistically different from control treated slices; also recorded: did not significantly increase c-Met receptor phosphorylation | correlation between Synapsin and postsynaptic actin-enriched spines (hippocampal neurons [4]): 98%
